Source: the NIST ThermoML archive (doi:10.1007/s10765-010-0768-y)
± gives the expanded uncertainty stated by the source.

Legend:
[1] = 101 kPa, Liquid, Pycnometric method
[2] = xn = mol fraction of the nth substance listed; conditions: 101 kPa, Liquid, Pycnometric method, x2 = 0

Which results are given for `Cc1ccccc1C` [1,2-dimethylbenzene]?
mass density ([1]; 288.15 K): 884.09 ± 0.22 kg/m3; mass density ([1]; 293.15 K): 879.83 ± 0.21 kg/m3; mass density ([1]; 298.15 K): 875.57 ± 0.22 kg/m3; mass density ([1]; 303.15 K): 871.31 ± 0.23 kg/m3; mass density ([1]; 308.15 K): 867.05 ± 0.24 kg/m3; mass density ([1]; 313.15 K): 862.79 ± 0.25 kg/m3; mass density ([1]; 318.15 K): 858.53 ± 0.26 kg/m3

For `Cc1ccccc1C` [1,2-dimethylbenzene] + C=CC(=O)OCCCC, which mass density ([2]; 288.15 K) is on record?
Its mass density is 884.09 ± 0.22 kg/m3.

And the mass density ([2]; 293.15 K)?
Its mass density is 879.83 ± 0.21 kg/m3.

What about the mass density ([2]; 298.15 K) of the same compound?
Its mass density is 875.57 ± 0.22 kg/m3.

And the mass density ([2]; 303.15 K)?
Its mass density is 871.31 ± 0.23 kg/m3.

And the mass density ([2]; 308.15 K)?
Its mass density is 867.05 ± 0.24 kg/m3.

And the mass density ([2]; 313.15 K)?
The mass density was 862.79 ± 0.25 kg/m3.

What about the mass density ([2]; 318.15 K) of the same compound?
The mass density was 858.53 ± 0.26 kg/m3.

With `Cc1cc(C)cc(C)c1` [1,3,5-trimethylbenzene] as the compound, how does the mass density ([1]; 288.15 K) read?
The mass density was 869.28 ± 0.24 kg/m3.

What about the mass density ([1]; 293.15 K) of the same compound?
The mass density was 865.37 ± 0.23 kg/m3.

And the mass density ([1]; 298.15 K)?
The mass density was 861.45 ± 0.24 kg/m3.

What about the mass density ([1]; 303.15 K) of the same compound?
The mass density was 857.54 ± 0.25 kg/m3.

And the mass density ([1]; 308.15 K)?
The mass density was 853.63 ± 0.26 kg/m3.

And the mass density ([1]; 313.15 K)?
The mass density was 849.71 ± 0.27 kg/m3.

And the mass density ([1]; 318.15 K)?
The mass density was 845.8 ± 0.28 kg/m3.

Which mass density ([1]; 288.15 K) does the source give for `c1ccccc1` [benzene] here?
Its mass density is 884.3 ± 0.22 kg/m3.

And the mass density ([1]; 293.15 K)?
Its mass density is 878.95 ± 0.2 kg/m3.

What about the mass density ([1]; 298.15 K) of the same compound?
Its mass density is 873.61 ± 0.21 kg/m3.

What about the mass density ([1]; 303.15 K) of the same compound?
Its mass density is 868.26 ± 0.22 kg/m3.

And the mass density ([1]; 308.15 K)?
Its mass density is 862.9 ± 0.23 kg/m3.

And the mass density ([1]; 313.15 K)?
The mass density was 857.56 ± 0.24 kg/m3.

What about the mass density ([1]; 318.15 K) of the same compound?
Its mass density is 852.23 ± 0.25 kg/m3.

With `Cc1ccc(C)cc1` [1,4-dimethylbenzene] + C=CC(=O)OCCCC as the compound, how does the mass density ([2]; 288.15 K) read?
Its mass density is 865.52 ± 0.22 kg/m3.

What about the mass density ([2]; 293.15 K) of the same compound?
The mass density was 861.17 ± 0.2 kg/m3.

And the mass density ([2]; 298.15 K)?
The mass density was 856.82 ± 0.21 kg/m3.

And the mass density ([2]; 303.15 K)?
The mass density was 852.47 ± 0.22 kg/m3.

What about the mass density ([2]; 308.15 K) of the same compound?
Its mass density is 848.12 ± 0.23 kg/m3.

And the mass density ([2]; 313.15 K)?
The mass density was 843.77 ± 0.24 kg/m3.

What about the mass density ([2]; 318.15 K) of the same compound?
The mass density was 839.42 ± 0.25 kg/m3.

Which mass density ([1]; 288.15 K) does the source give for `C=CC(=O)OCCCC` [butyl 2-propenoate] here?
Its mass density is 903.6 ± 0.27 kg/m3.

What about the mass density ([1]; 293.15 K) of the same compound?
Its mass density is 898.85 ± 0.26 kg/m3.

What about the mass density ([1]; 298.15 K) of the same compound?
Its mass density is 894.1 ± 0.27 kg/m3.

And the mass density ([1]; 303.15 K)?
Its mass density is 889.35 ± 0.28 kg/m3.

What about the mass density ([1]; 308.15 K) of the same compound?
The mass density was 884.6 ± 0.29 kg/m3.

And the mass density ([1]; 313.15 K)?
The mass density was 879.85 ± 0.3 kg/m3.

What about the mass density ([1]; 318.15 K) of the same compound?
The mass density was 875.1 ± 0.31 kg/m3.

For `Cc1cccc(C)c1` [1,3-dimethylbenzene] + C=CC(=O)OCCCC, which mass density ([2]; 288.15 K) is on record?
Its mass density is 868.59 ± 0.22 kg/m3.

And the mass density ([2]; 293.15 K)?
Its mass density is 864.31 ± 0.21 kg/m3.

What about the mass density ([2]; 298.15 K) of the same compound?
Its mass density is 860.02 ± 0.22 kg/m3.

What about the mass density ([2]; 303.15 K) of the same compound?
Its mass density is 855.74 ± 0.23 kg/m3.

What about the mass density ([2]; 308.15 K) of the same compound?
Its mass density is 851.45 ± 0.24 kg/m3.

What about the mass density ([2]; 313.15 K) of the same compound?
Its mass density is 847.17 ± 0.25 kg/m3.

And the mass density ([2]; 318.15 K)?
The mass density was 842.88 ± 0.26 kg/m3.

With `Cc1cccc(C)c1` [1,3-dimethylbenzene] as the compound, how does the mass density ([1]; 288.15 K) read?
Its mass density is 868.59 ± 0.22 kg/m3.

What about the mass density ([1]; 293.15 K) of the same compound?
The mass density was 864.31 ± 0.21 kg/m3.

And the mass density ([1]; 298.15 K)?
Its mass density is 860.02 ± 0.22 kg/m3.

What about the mass density ([1]; 303.15 K) of the same compound?
The mass density was 855.74 ± 0.23 kg/m3.

And the mass density ([1]; 308.15 K)?
Its mass density is 851.45 ± 0.24 kg/m3.

What about the mass density ([1]; 313.15 K) of the same compound?
The mass density was 847.17 ± 0.25 kg/m3.

What about the mass density ([1]; 318.15 K) of the same compound?
Its mass density is 842.88 ± 0.26 kg/m3.

With `c1ccccc1` [benzene] + C=CC(=O)OCCCC as the compound, how does the mass density ([2]; 288.15 K) read?
Its mass density is 884.3 ± 0.22 kg/m3.

And the mass density ([2]; 293.15 K)?
The mass density was 878.95 ± 0.2 kg/m3.

What about the mass density ([2]; 298.15 K) of the same compound?
The mass density was 873.61 ± 0.21 kg/m3.

What about the mass density ([2]; 303.15 K) of the same compound?
The mass density was 868.26 ± 0.22 kg/m3.

And the mass density ([2]; 308.15 K)?
Its mass density is 862.9 ± 0.23 kg/m3.

What about the mass density ([2]; 313.15 K) of the same compound?
Its mass density is 857.56 ± 0.24 kg/m3.

And the mass density ([2]; 318.15 K)?
The mass density was 852.23 ± 0.25 kg/m3.

For `Cc1ccccc1` [toluene] + C=CC(=O)OCCCC, which mass density ([2]; 288.15 K) is on record?
Its mass density is 871.79 ± 0.21 kg/m3.

And the mass density ([2]; 293.15 K)?
Its mass density is 867.08 ± 0.2 kg/m3.

What about the mass density ([2]; 298.15 K) of the same compound?
Its mass density is 862.36 ± 0.21 kg/m3.

And the mass density ([2]; 303.15 K)?
The mass density was 857.64 ± 0.22 kg/m3.

And the mass density ([2]; 308.15 K)?
The mass density was 852.93 ± 0.23 kg/m3.

And the mass density ([2]; 313.15 K)?
The mass density was 848.21 ± 0.24 kg/m3.

What about the mass density ([2]; 318.15 K) of the same compound?
The mass density was 843.49 ± 0.25 kg/m3.

With `Cc1ccc(C)cc1` [1,4-dimethylbenzene] as the compound, how does the mass density ([1]; 288.15 K) read?
Its mass density is 865.52 ± 0.22 kg/m3.

And the mass density ([1]; 293.15 K)?
Its mass density is 861.17 ± 0.2 kg/m3.

And the mass density ([1]; 298.15 K)?
Its mass density is 856.82 ± 0.21 kg/m3.

What about the mass density ([1]; 303.15 K) of the same compound?
The mass density was 852.47 ± 0.22 kg/m3.

What about the mass density ([1]; 308.15 K) of the same compound?
The mass density was 848.12 ± 0.23 kg/m3.

What about the mass density ([1]; 313.15 K) of the same compound?
Its mass density is 843.77 ± 0.24 kg/m3.

What about the mass density ([1]; 318.15 K) of the same compound?
The mass density was 839.42 ± 0.25 kg/m3.

For `Cc1cc(C)cc(C)c1` [1,3,5-trimethylbenzene] + C=CC(=O)OCCCC, which mass density ([2]; 288.15 K) is on record?
Its mass density is 869.28 ± 0.24 kg/m3.

What about the mass density ([2]; 293.15 K) of the same compound?
The mass density was 865.37 ± 0.23 kg/m3.

What about the mass density ([2]; 298.15 K) of the same compound?
The mass density was 861.45 ± 0.24 kg/m3.

And the mass density ([2]; 303.15 K)?
Its mass density is 857.54 ± 0.25 kg/m3.

What about the mass density ([2]; 308.15 K) of the same compound?
Its mass density is 853.63 ± 0.26 kg/m3.

And the mass density ([2]; 313.15 K)?
The mass density was 849.71 ± 0.27 kg/m3.

What about the mass density ([2]; 318.15 K) of the same compound?
Its mass density is 845.8 ± 0.28 kg/m3.

Which mass density ([1]; 288.15 K) does the source give for `Cc1ccccc1` [toluene] here?
Its mass density is 871.79 ± 0.21 kg/m3.

And the mass density ([1]; 293.15 K)?
The mass density was 867.08 ± 0.2 kg/m3.

And the mass density ([1]; 298.15 K)?
The mass density was 862.36 ± 0.21 kg/m3.

And the mass density ([1]; 303.15 K)?
Its mass density is 857.64 ± 0.22 kg/m3.

What about the mass density ([1]; 308.15 K) of the same compound?
Its mass density is 852.93 ± 0.23 kg/m3.

And the mass density ([1]; 313.15 K)?
Its mass density is 848.21 ± 0.24 kg/m3.

And the mass density ([1]; 318.15 K)?
The mass density was 843.49 ± 0.25 kg/m3.
